Experimental data as given in US7696174B2, “Short bio-active peptides for cellular and immunological modulation” (Helix Biomedix, Inc., priority 2007, dated 2010).
Entries after “also recorded” stand apart in the source; their conditions may differ. Read-outs that look alike come from different tables or passages of the source.

Assays:
Type in all cases: cell-based
[1] = system: PAM 212 murine epidermal keratinocyte; assay: Cell proliferation assay, PAM 212 murine epidermal keratinocytes; details: for cell proliferation as a percent of control cell proliferation: control = cells treated with PBS only; for cell proliferation activity (in words): epidermal keratinocytes
Description: To examine this question, an overlapping set of peptide fragments of HB-107 was generated using standard solid phase peptide chemistry. These peptides were then assayed for cell proliferation activity at concentrations of 0.22, 2.15, 21.5 and 46.4 μg/mL.
The cell proliferation assays proceeded from the following experimental protocol:
Cell Proliferation Assay Using a Mouse Keratinocyte Cell Line.
OBJECTIVE: To determine the anti-proliferative or cytotoxic potential of a test article when applied to epidermal keratinocytes in culture.
TEST SYSTEM: Either the murine keratinocyte cell line PAM212 or primary Normal Human Epidermal Keratinocytes (NHEK, from Clonetics) are preferred models, although other cells may be used.
Keratinocytes are examined microscopically daily. As the culture becomes 50-75% confluent, the media in the plate is aspirated and 0.25% trypsin/EDTA is added (0.05% trypsin for human cells). When the cells become rounded, the trypsin is neutralized by addition of an equal volume of DMEM or KBM supplemented with approximately 10% bovine serum or by using trypsin neutralizing solution (TNS, from Clonetics). Cells are then centrifuged and the pellet is resuspended in 1 ml of DMEM-1 or KBM. A hemacytometer is used to count the cell suspension and the total number of cells/mL is adjusted to 1.5-2.5×10^4 cells/mL with DMEM-1 or KBM. Cells are then plated in 96-well plates at a concentration of 3.0-5.0×10^3 cells/well by adding 200 μL of the cell suspension to each well. Typically, the central 60 wells are used and the outer wells are filled with DMEM or PBS to minimize evaporation effects.
A stock solution of the test article is prepared using DMEM-1 or KBM, and all other dilutions are henceforth prepared from this solution. Typically, each dilution is filtered through an 0.2-μm filter before application to the cell culture. A 1.0% (w/v or v/v) solution or suspension is prepared, and 10-fold or 3-fold serial dilutions are made in culture medium.
The cells are examined 18-24 hours after plating to ensure cell attachment and division, and then 100 μL of the media is aspirated, leaving behind 100 μL in each well. Then 100 μL of a 2× concentration of each test article dilution is added to the replicate wells. For the negative control, 100 μL of the vehicle media (DMEM-1 or KBM) is added to the control wells. The microplate is then incubated at 37 degrees C. and 5.0% CO2 for 48-72 hours after dosing, and cells are allowed to proliferate undisturbed. Following this 48-72 hour exposure, all media is aspirated and proliferation is assessed by one of the below methods.
Option A: neutral red uptake. After exposure and aspiration of media, 200 μL of neutral red media is immediately added to each well. The microplate is returned to the incubator for an additional three hours. Following this dye uptake period, the microplate is removed from the incubator and gently inverted, and the neutral red media is decanted into a collection pan. The cells are then fixed with fixing solution for approximately one minute. The fixing solution is decanted off, and the microplate is washed gently three times with washing solution. The washing solution is decanted, and 200 μL of lysing solution is added. After at least 15 minutes, the contents of each well are re-pipetted to ensure even color distribution in each well, and an aliquot is read on the spectrophotometer as detailed below.
Option B: MTT conversion assay. After exposure and aspiration of media, 200 μL of MTT assay media is immediately added to each well. […] The microplate is returned to the incubator for an additional three hours. Following this dye uptake period, the microplate is removed from the incubator and gently inverted, and the MTT media is decanted into a collection pan. The cells are then washed gently three times with washing solution. The washing solution is decanted, and 200 μL of lysing solution is added. […]

[2] = system: human epidermal keratinocyte; assay: Keratinocyte cell migration assay (tissue culture scratch test); details: for cell migration activity (in words): scratch test
Excerpt: Cell proliferation alone is not sufficient to aid in wound healing. Upon sustaining an injury, cells bordering the wound proliferate; the migration of such newly formed cells to close the injury (or chronic lesion of older, dysfunctional tissue) is of equal importance. To address this issue, HB-107 and peptide fragments thereof were examined using a keratinocyte cell migration assay based on a simple tissue culture scratch test. […] The protocol for this assay is standard and has been described by Shanley et al. (2004, Invest. Ophthalmol. Vis. Sci. 45:1088-1094), the article of which is herein incorporated by reference in its entirety.

[3] = system: IL6 expression in epithelial cells; assay: Repression of IL6 expression in resting epithelial cells; details: for % Change in IL6 expression / Change in IL6 versus PBS control: 20 μg/mL peptide
Excerpt: The protocol for this assay is standard and described by Murakami et al. (2004, J. Immunol. 172:[…]), the article of which is incorporated herein by reference in its entirety.

[4] = 24 hr after addition of 20 μg/mL peptide
[5] = 48 hr after addition of 20 μg/mL peptide

| Substance | cell proliferation as a percent of control cell proliferation ([1]; 0.22 μg/mL peptide) | cell proliferation as a percent of control cell proliferation ([1]; 2.15 μg/mL peptide) | cell proliferation as a percent of control cell proliferation ([1]; 21.5 μg/mL peptide) | cell proliferation as a percent of control cell proliferation ([1]; 46.4 μg/mL peptide) | cell proliferation activity (in words) [1] | also measured |
| --- | --- | --- | --- | --- | --- | --- |
| EKMGRNIRN (listed as Hyalophora cecropia) [HB-1059, fragment of HB-107] | 95% | 128% | 162% | 186% |  | cell proliferation activity (in words) ([1]; listed as SEQ ID NO:2): strongest proliferative activity; also recorded: can induce cell proliferation |
| GRNIRN (listed as Hyalophora cecropia) [HB-1062, fragment of HB-107] |  |  |  |  |  | percent closure of the scratch compared to initial width ([2]; 6 hr exposure to peptide): 0%; percent closure of the scratch compared to initial width ([2]; 10 hr exposure to peptide): 24%; cell migration activity (in words) [2]: no migratory activity |
| KEKVFLKIE (listed as Hyalophora cecropia) [HB-1076, fragment of HB-107] |  |  |  |  |  | IL6 reduction / anti-inflammatory activity in resting cells (in words) [3]: decrease the level of IL6 expression to the same degree as the HB-107 parent peptide; amount of IL6, Average [3, 4]: 266.7 pg/mL; amount of IL6, Well 1 [3, 4]: 278.32 pg/mL; amount of IL6, Well 2 [3, 4]: 255.08 pg/mL; % Change in IL6 expression ([3]; 24 hr): −17.60%; Change in IL6 versus PBS control ([3]; 24 hr): −56.8; amount of IL6, Average [3, 5]: 727.59 pg/mL; amount of IL6, Well 1 [3, 5]: 726.73 pg/mL; amount of IL6, Well 2 [3, 5]: 728.45 pg/mL; % Change in IL6 expression ([3]; 48 hr): −25.40%; Change in IL6 versus PBS control ([3]; 48 hr): −247.445; IL6 reduction / anti-inflammatory activity in resting cells (in words) ([3]; listed as SEQ ID NO:8): having anti-inflammatory activity |
| KIEKMG (listed as Hyalophora cecropia) [HB-1072, fragment of HB-107] | 98% | 107% | 185% | 237% | significant increases in cell proliferation compared to induction by HB-107; also recorded: significant increase in the proliferation of epidermal keratinocytes at low concentrations | cell proliferation activity (in words) ([1]; listed as 6): strongest proliferative activity; cell proliferation activity (in words) ([1]; listed as SEQ ID NO:6): can induce cell proliferation; percent closure of the scratch compared to initial width ([2]; 6 hr exposure to peptide): 55%; percent closure of the scratch compared to initial width ([2]; 10 hr exposure to peptide): 77%; cell migration activity (in words) [2]: just as capable as HB-107 in inducing cell migration; also recorded: capable of increasing the migration of cells in a manner similar to that of the parent HB-107 peptide; cell migration activity (in words) ([2]; listed as SEQ ID NO:6): can induce cell proliferation and migration |
| KIEKMGRNIRN (listed as Hyalophora cecropia) [HB-1057, fragment of HB-107] | 121% | 118% | 171% | 167% |  | cell proliferation activity (in words) ([1]; listed as 9): strongest proliferative activity; cell proliferation activity (in words) ([1]; listed as SEQ ID NO:9): can induce cell proliferation |
| KMGRNIRN (listed as Hyalophora cecropia) [HB-1060, fragment of HB-107] | 57% | 52% | 90% | 83% |  |  |
| LKIEKMGRNIRN (listed as Hyalophora cecropia) [HB-1056, fragment of HB-107] | 48% | 39% | 64% | 97% |  |  |
| MGRNIRN (listed as Hyalophora cecropia) [HB-1061, fragment of HB-107] | 122% | 156% | 163% | 241% | significant increases in cell proliferation compared to induction by HB-107; also recorded: significant increase in the proliferation of epidermal keratinocytes at low concentrations | cell proliferation activity (in words) ([1]; listed as 3): strongest proliferative activity; cell proliferation activity (in words) ([1]; listed as SEQ ID NO:3): can induce cell proliferation; percent closure of the scratch compared to initial width ([2]; 6 hr exposure to peptide): 44%; percent closure of the scratch compared to initial width ([2]; 10 hr exposure to peptide): 67%; cell migration activity (in words) [2]: just as capable as HB-107 in inducing cell migration; also recorded: capable of increasing the migration of cells in a manner similar to that of the parent HB-107 peptide; cell migration activity (in words) ([2]; listed as SEQ ID NO:3): can induce cell proliferation and migration |
| MPKEKVFLKIEKMG (listed as Hyalophora cecropia) [HB-912, fragment of HB-107] | 100% | 84% | 125% | 137% | can induce cell proliferation |  |
| VFLKIEK (listed as Hyalophora cecropia) [HB-1074, fragment of HB-107] | 97% | 93% | 120% | 149% | can induce cell proliferation |  |
| VFLKIEKMG (listed as Hyalophora cecropia) [HB-1071, fragment of HB-107] | 106% | 127% | 188% | 155% |  | cell proliferation activity (in words) ([1]; listed as 5): strongest proliferative activity; cell proliferation activity (in words) ([1]; listed as SEQ ID NO:5): can induce cell proliferation |
